According to patent publication EP4703359A1 (Shanghai Simr Biotechnology Co., Ltd., priority 2023, dated 2024):
Where a name gives a salt, the structure may show the parent alone.

Target: T1, α2-GABAA receptor (Homo sapiens, UniProt P18507+P47869)
T1 construct: expressed in transfected cells
Assay: Whole-cell patch-clamp electrophysiology, positive allosteric modulatory activity in α2-GABAAR-HEK293 cells
Assay type: cell-based
Details: compound 100 nM; GABA 0.10 to 0.11 µM (approximately EC7-8); normalized to reference compound CVL-865 (= 100%)
Description: The α subunit, β subunit, and γ subunit are indispensable for forming a fully functional GABAA receptor. In this example, HEK293 cells stably expressing α2-GABAA receptors (α2-GABAAR) were constructed and screened respectively via liposome transfection (Felgner, P.L., et al. Proceedings of the National Academy of Sciences, 1987, 84: 7413-7417). The α2-GABAAR-HEK293 cell model co-expresses the α2 subunit (protein sequence referenced under GenBank accession number: NM_000807.4), β3 subunit (protein sequence referenced under GenBank accession number: NM_000814.5), and γ2 subunit (protein sequence referenced under GenBank accession number: NM_000816.3).
The above cell lines were subcultured. α2-GABAAR-HEK293 cells were amplified for testing the affinity of compounds to the benzodiazepine (BZD) site of GABAA receptors. Some of the α2-GABAAR-HEK293 cells in suspension during subculturing were plated on glass slides pre-treated with Poly-D-Lysine for electrophysiological testing (method reference: Patent CN 107344936 A, paragraph 0586).
The positive modulatory activity of the test drug on the α2-GABAA receptor was assessed using electrophysiological methods. The specific approach is as follows:
With regards to the concentration of the compound, the final concentration of all compounds used in the screening was 100 nM. For cell lines expressing α2-GABAA receptors, the GABA concentration was 0.10 to 0.11 µM (approximately EC7-8). Electrophysiological experiments were conducted using the whole-cell patch-clamp technique, which can be referenced to the method reported in the literature (Nickolls, S. A., et al. *British Journal of Pharmacology*, 2018, 175: 708-725). The composition of the extracellular solution (ECS) for electrophysiology was as follows: 150 mM NaCl, 5 mM KCl, 2.5 mM CaCl2, 1 mM MgCl2, 10 mM HEPES, and 10 mM glucose (pH 7.4). The intracellular solution (ICS) for electrophysiology was formulated as follows: 140 mM CsCl, 11 mM EGTA, 10 mM HEPES, 2 mM CaCl2, 1 mM MgCl2, 4 mM MgATP, and 2 mM TEA (pH 7.3). GABA (γ-aminobutyric acid) powder was dissolved in pure water to prepare a stock solution, which was subsequently diluted in ECS. The compound was initially dissolved in dimethyl sulfoxide to prepare a 4 mM stock solution, followed by stepwise dilution into GABA-ECS at corresponding concentrations. All solutions were freshly prepared prior to electrophysiological testing.
Electrophysiological signals were acquired using an EPC 10 amplifier and PatchMaster software (HEKA) or an Axon 700B amplifier and Clampex software (AXON). The recording electrode was pulled from borosilicate glass, with an electrode resistance of 4 to 6 MΩ. Extracellular administration was performed using the ALA-VC-8PG™ system. A single independently growing cell was selected. After forming a tight seal between the glass electrode and the cell membrane, the membrane was ruptured to establish the whole-cell configuration. The cell membrane potential was clamped at -60 mV and recorded in Gap-free mode. During the test, extracellular fluid was first applied externally for approximately 20 seconds. After the baseline (Iprebaseline) was stabilized, the extracellular solution was switched to GABA-ECS. At this point, the current induced by GABA (Igaba) can be detected. After approximately 10 to 20 seconds, once the current had stabilized, the extracellular solution was switched to a mixture of the compound and GABA-ECS until the current induced by both the compound and GABA (Itreatment) could be detected. Finally, the solution was switched to extracellular fluid, and the recording was terminated after 20 to 40 seconds. Only cells with a stable baseline, an absolute control current magnitude (Igaba - Iprebaseline) greater than 40 pA, and a relatively stable current within 10 to 20 seconds were used for compound testing. […]

T1 sequence (P47869 29-451): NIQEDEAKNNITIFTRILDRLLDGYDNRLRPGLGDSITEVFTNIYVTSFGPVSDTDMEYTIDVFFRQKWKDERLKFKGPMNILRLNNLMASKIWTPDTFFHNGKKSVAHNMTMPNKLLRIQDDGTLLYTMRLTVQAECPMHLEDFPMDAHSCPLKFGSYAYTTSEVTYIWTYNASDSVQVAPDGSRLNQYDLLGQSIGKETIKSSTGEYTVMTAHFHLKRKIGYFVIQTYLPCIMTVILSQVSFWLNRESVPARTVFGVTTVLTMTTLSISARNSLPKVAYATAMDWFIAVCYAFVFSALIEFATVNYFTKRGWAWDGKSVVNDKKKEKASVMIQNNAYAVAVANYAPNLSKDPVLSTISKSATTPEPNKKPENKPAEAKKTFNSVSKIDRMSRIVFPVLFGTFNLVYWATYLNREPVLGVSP
T1 sequence (P18507 40-467 isoform P18507-1 limits assumed): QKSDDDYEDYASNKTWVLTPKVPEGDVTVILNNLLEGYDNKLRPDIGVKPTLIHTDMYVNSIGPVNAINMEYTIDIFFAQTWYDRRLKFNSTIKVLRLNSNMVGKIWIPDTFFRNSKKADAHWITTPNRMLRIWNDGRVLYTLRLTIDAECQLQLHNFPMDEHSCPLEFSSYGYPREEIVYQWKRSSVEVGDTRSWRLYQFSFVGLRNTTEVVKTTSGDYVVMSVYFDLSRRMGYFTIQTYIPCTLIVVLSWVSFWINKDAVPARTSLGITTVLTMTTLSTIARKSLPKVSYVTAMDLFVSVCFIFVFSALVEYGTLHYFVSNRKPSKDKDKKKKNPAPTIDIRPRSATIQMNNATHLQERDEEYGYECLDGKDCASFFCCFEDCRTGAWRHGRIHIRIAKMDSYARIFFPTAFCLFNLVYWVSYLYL
T1 sequence (P28472 26-473 partner): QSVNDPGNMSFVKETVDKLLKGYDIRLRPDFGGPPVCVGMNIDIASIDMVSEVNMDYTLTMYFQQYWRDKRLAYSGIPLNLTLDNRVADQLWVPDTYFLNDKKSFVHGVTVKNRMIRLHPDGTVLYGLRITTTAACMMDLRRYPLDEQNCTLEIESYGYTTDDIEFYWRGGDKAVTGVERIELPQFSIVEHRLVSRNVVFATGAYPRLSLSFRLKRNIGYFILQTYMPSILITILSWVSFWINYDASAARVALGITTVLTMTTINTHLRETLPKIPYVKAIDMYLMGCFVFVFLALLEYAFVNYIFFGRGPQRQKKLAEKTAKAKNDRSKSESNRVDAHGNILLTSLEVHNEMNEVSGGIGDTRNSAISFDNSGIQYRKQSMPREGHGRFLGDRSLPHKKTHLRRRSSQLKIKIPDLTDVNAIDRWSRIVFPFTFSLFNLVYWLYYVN

In order of falling “α2-GABAAR Positive allosteric modulatory activity” value:
1. [2H]c1ccc(-c2c(F)cccc2OC)c2nc(C(=O)NCCC)c(N)n12 [Example 156, 3-amino-8-(2-fluoro-6-methoxyphenyl)-N-propylimidazo[1,2-a]pyridine-5-deuterium-2-carboxamide]  100%
2. [2H]c1cc(-c2c(F)cccc2OC)c2nc(C(=O)NCCC)c(N)n2c1 [Example 154, 3-Amino-8-(2-fluoro-6-methoxyphenyl)-N-propylimidazo[1,2-a]pyridine-6-deuterio-2-carboxamide]  84%
3. COc1cccc(F)c1-c1c(F)ccn2c(N)c(C(=O)NCCC(F)(F)F)nc12 [Example 125, 3-Amino-7-fluoro-8-(2-fluoro-6-methoxyphenyl)-N-(3,3,3-trifluoropropyl)propylimidazo[1,2-a]pyridine-2-carboxamide]  70%
4. CCCNC(=O)c1nc2c(-c3cc4ncoc4cc3F)cccn2c1N [Example 98]  64%
5. CCCNC(=O)c1nc2c(CC(C)C)c(F)ccn2c1N [Example 119]  33%
6. CCCNC(=O)c1nc2c(-c3cc(F)c4ocnc4c3)cccn2c1N [Example 99]  31%

Same assay, conditions: compound 100 nM; GABA 0.10 to 0.11 µM (approximately EC7-8); normalized to reference compound CVL-865 (= 100%); read-out: α2-GABAAR Positive allosteric modulatory activity

In order of rising Emax at 0.1 µM:
1. CC#Cc1cccc(-c2cccn3c(N)c(C(=O)NCCC)nc23)c1 [Example 40, 3-Amino-8-(3-(prop-1-yn-1-yl)phenyl)-N-propylimidazo[1,2-a]pyridine-2-carboxamide]  25%
2. COc1cccc(F)c1-c1cccn2c(N)c(C(=O)NCCO)nc12 [Example 22, 3-Amino-8-(2-fluoro-6-methoxyphenyl)-N-(2-hydroxyethyl)imidazo[1,2-a]pyridine-2-carboxamide]  25%
3. CCCNC(=O)c1nc2c(-c3cccc(-c4ccnnc4)c3)cccn2c1N [Example 44]  31%
4. COc1cccc(F)c1-c1cccn2c(N)c(C(=O)NCc3ccccn3)nc12 [Example 20, 3-Amino-8-(2-fluoro-6-methoxyphenyl)-N-(pyridin-2-methyl)imidazo[1,2-a]pyridine-2-carboxamide]  35%
5. CCCNC(=O)c1nc2c(-c3c(F)cccc3COC)cccn2c1N [Example 65, 3-Amino-8-(2-fluoro-6-(methoxymethyl)phenyl)-N-propylimidazo[1,2-a]pyridine-2-carboxamide]  36%
6. COc1cccc(F)c1-c1cccn2c(N)c(C(=O)NCCc3ccccc3)nc12 [Example 21, 3-Amino-8-(2-fluoro-6-methoxyphenyl)-N-phenethylimidazo[1,2-a]pyridine-2-carboxamide]  43%
7. CCCNC(=O)c1nc2c(-c3ccnc(C#N)c3)cccn2c1N [Example 89, 3-Amino-8-(2-cyanopyridin-4-yl)-N-propylimidazo[1,2-a]pyridine-2-carboxamide]  44%
8. CCCNC(=O)c1nc2c(-c3cc(F)cc(F)c3)c(F)ccn2c1N [Example 113, 3-Amino-8-(3,5-difluorophenyl)-7-fluoro-N-propylimidazo[1,2-a]pyridine-2-carboxamide]  49%
9. CCCNC(=O)c1nc2c(-c3c(F)cccc3OC)c(C(F)F)ccn2c1N [Example 128, 3-Amino-7-(difluoromethyl)-8-(2-fluoro-6-methoxyphenyl)-N-propylimidazo[1,2-a]pyridine-2-carboxamide]  49%
10. CCCNC(=O)c1nc2c(-c3c(F)ccc4ccc(OC)cc34)cccn2c1N [Example 108, 3-Amino-8-(2-fluoro-7-methoxynaphthalen-1-yl)-N-propylimidazo[1,2-a]pyridine-2-carboxamide]  50%
11. CCCNC(=O)c1nc2c(-c3cn4ccnc4cc3OC)cccn2c1N [Example 94, 3'-Amino-7-methoxy-N-propyl-[6,8'-diimidazo[1,2-a]pyridine]-2'-carboxamide]  51%
12. CCCNC(=O)c1nc2c(-c3c(C#N)cccc3OC)c(F)ccn2c1N [Example 118, 3-Amino-8-(2-cyano-6-methoxyphenyl)-7-fluoro-N-propylimidazo[1,2-a]pyridine-2-carboxamide]  51%
13. CCCNC(=O)c1nc2c(-c3cc4cccnc4cc3OC)cccn2c1N [Example 97, 3-Amino-8-(7-methoxyquinolin-6-yl)-N-propylimidazo[1,2-a]pyridine-2-carboxamide]  52%
14. CCCNC(=O)c1nc2c(-c3c(F)cccc3OC)c(Cl)ccn2c1N [Example 130, 3-Amino-7-chloro-8-(2-fluoro-6-methoxyphenyl)-N-propylimidazo[1,2-a]pyridine-2-carboxamide]  53%
15. CCCNC(=O)c1nc2c(-c3c(F)cccc3OC)cc(F)cn2c1N [Example 155, 3-Amino-6-fluoro-8-(2-fluoro-6-methoxyphenyl)-N-propylimidazo[1,2-a]pyridine-2-carboxamide]  56%
16. CCCNC(=O)c1nc2c(-c3cnc(OC)nc3OC)c(F)ccn2c1N [Example 120, 3-Amino-8-(2,4-dimethoxypyrimidin-5-yl)-7-fluoro-N-propylimidazo[1,2-a]pyridine-2-carboxamide]  59%
17. COc1cccc(F)c1-c1cccn2c(N)c(C(=O)Nc3cnn(C)c3)nc12 [Example 15, 3-Amino-8-(2-fluoro-6-methoxyphenyl)-N-(1-methyl-1H-pyrazol-4-yl)imidazo[1,2-a]pyridine-2-carboxamide]  61%
18. CCCNC(=O)c1nc2c(-c3c(C#N)cccc3OC)cccn2c1N [Example 73, 3-Amino-8-(2-cyano-6-methoxyphenyl)-N-propylimidazo[1,2-a]pyridine-2-carboxamide]  64%
19. CCCNC(=O)c1nc2c(-c3cc(OC)ccc3OC)c(F)ccn2c1N [Example 111]  77%
20. CCCNC(=O)c1nc2c(-c3c(OC)ccc4ccoc34)cccn2c1N [Example 103, 3-Amino-8-(6-methoxybenzofuran-7-yl)-N-propylimidazo[1,2-a]pyridine-2-carboxamide]  87%
21. CCCNC(=O)c1nc2c(-c3cc(OC)nnc3OC)c(F)ccn2c1N [Example 117, 3-Amino-8-(3,6-dimethoxypyridazin-4-yl)-7-fluoro-N-propylimidazo[1,2-a]pyridine-2-carboxamide]  88%
22. CCCNC(=O)c1nc2c(-c3c(F)ccc4ncoc34)cccn2c1N [Example 100, 3-Amino-8-(6-fluorobenzoxazol-7-yl)-N-propylimidazopyridine-2-carboxamide]  94%
23. CCCNC(=O)c1nc2c(-c3c(F)cccc3OC(F)(F)F)cccn2c1N [Example 75, 3-Amino-8-(2-fluoro-6-(trifluoromethoxy)phenyl)-N-propylimidazo[1,2-a]pyridine-2-carboxamide]  101%
24. CCCNC(=O)c1nc2c(-c3cccnc3OC)c(F)ccn2c1N [Example 115, 3-Amino-7-fluoro-8-(2-methoxypyridin-3-yl)-N-propylimidazo[1,2-A]pyridine-2-carboxamide]  123%
25. CCCNC(=O)c1nc2c(-c3cnccc3OC)c(F)ccn2c1N [Example 114, 3-Amino-7-fluoro-8-(4-methoxypyridin-3-yl)-N-propylimidazo[1,2-a]pyridine-2-carboxamide]  124%

Same assay, conditions: read-out: α2-GABAAR Positive allosteric modulatory activity

Work on `CCCNC(=O)c1nc2c(CC(C)C)cccn2c1N` [Example 143, 3-Amino-8-isobutyl-N-propylimidazo[1,2-a]pyridine-2-carboxamide hydrochloride] yielded an Emax at 0.1 µM of 48%.
